Laboratory results taken from the supplement of paper PMC10307832.

Assays:
Assay in all cases: relative viability (nuclei count vs DMSO), 5 days (fraction); higher = more cells survive
NCI-H2009 = system: NCI-H2009
Procedure, shortened: (§1)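 Each reported value is a median over duplicate plates. It expresses relative viability: treated-well nuclei count divided by vehicle-well nuclei count. Lung cancer cell lines in 1536-well plates were dosed by pin tool a day after seeding, alone with one drug or with a fixed anchor-drug dose plus five library-drug doses (not always all listed) in √10 steps, and nuclei were counted after 5 days.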

NCI-H2023 = system: NCI-H2023
Procedure, shortened: as §1

HARA = system: HARA
Procedure, shortened: as §1

NCI-H650 = system: NCI-H650
Procedure, shortened: as §1

H3255 = system: H3255
Procedure, shortened: as §1

LOU-NH91 = system: LOU-NH91
Procedure, shortened: as §1

NCI-H1650 = system: NCI-H1650
Procedure, shortened: as §1

NCI-H838 = system: NCI-H838
Procedure, shortened: as §1

NCI-H2087 = system: NCI-H2087
Procedure, shortened: as §1

NCI-H1651 = system: NCI-H1651
Procedure, shortened: as §1

EPLC-272H = system: EPLC-272H
Procedure, shortened: as §1

SW 1573 = system: SW 1573
Procedure, shortened: as §1

NCI-H1975 = system: NCI-H1975
Procedure, shortened: as §1

NCI-H2085 = system: NCI-H2085
Procedure, shortened: as §1

NCI-H727 = system: NCI-H727
Procedure, shortened: as §1

LC-2-ad = system: LC-2-ad
Procedure, shortened: as §1

NCI-H2228 = system: NCI-H2228
Procedure, shortened: as §1

NCI-H2170 = system: NCI-H2170
Procedure, shortened: as §1

UMC-11 = system: UMC-11
Procedure, shortened: as §1

PC-3 [JPC-3] = system: PC-3 [JPC-3]
Procedure, shortened: as §1

NCI-H23 = system: NCI-H23
Procedure, shortened: as §1

## CCNC(=O)c1noc(-c2cc(C(C)C)c(O)cc2O)c1-c1ccc(CN2CCOCC2)cc1 [Luminespib] + CS(=O)(=O)CCNCc1ccc(-c2ccc3ncnc(Nc4ccc(OCc5cccc(F)c5)c(Cl)c4)c3c2)o1 [Lapatinib] (partner 2 µM)
NCI-H2009; first compound 0.002 µM
  relative viability: 1.22
NCI-H2009; first compound 0.006325 µM
  relative viability: 0.814
NCI-H2009; first compound 0.02 µM
  relative viability: 0.63
NCI-H2009; first compound 0.06325 µM
  relative viability: 0.0682
NCI-H2009; first compound 0.2 µM
  relative viability: 0.0655
NCI-H2023; first compound 0.002 µM
  relative viability: 0.866
NCI-H2023; first compound 0.006325 µM
  relative viability: 0.787
NCI-H2023; first compound 0.02 µM
  relative viability: 0.124
NCI-H2023; first compound 0.06325 µM
  relative viability: 0.0702
NCI-H2023; first compound 0.2 µM
  relative viability: 0.0724
HARA; first compound 0.002 µM
  relative viability: 0.704
HARA; first compound 0.006325 µM
  relative viability: 0.709
HARA; first compound 0.02 µM
  relative viability: 0.465
HARA; first compound 0.06325 µM
  relative viability: 0.335
HARA; first compound 0.2 µM
  relative viability: 0.259
NCI-H650; first compound 0.002 µM
  relative viability: 0.888
NCI-H650; first compound 0.006325 µM
  relative viability: 0.838
NCI-H650; first compound 0.02 µM
  relative viability: 0.507
NCI-H650; first compound 0.06325 µM
  relative viability: 0.0944
NCI-H650; first compound 0.2 µM
  relative viability: 0.149
H3255; first compound 0.002 µM
  relative viability: 0.245
H3255; first compound 0.006325 µM
  relative viability: 0.305
H3255; first compound 0.02 µM
  relative viability: 0.234
H3255; first compound 0.06325 µM
  relative viability: 0.233
H3255; first compound 0.2 µM
  relative viability: 0.25
LOU-NH91; first compound 0.002 µM
  relative viability: 0.791
LOU-NH91; first compound 0.006325 µM
  relative viability: 0.833
LOU-NH91; first compound 0.02 µM
  relative viability: 0.588
LOU-NH91; first compound 0.06325 µM
  relative viability: 0.338
LOU-NH91; first compound 0.2 µM
  relative viability: 0.342
NCI-H1650; first compound 0.002 µM
  relative viability: 0.761
NCI-H1650; first compound 0.006325 µM
  relative viability: 0.642
NCI-H1650; first compound 0.02 µM
  relative viability: 0.177
NCI-H1650; first compound 0.06325 µM
  relative viability: 0.145
NCI-H1650; first compound 0.2 µM
  relative viability: 0.176
NCI-H838; first compound 0.002 µM
  relative viability: 1.05
NCI-H838; first compound 0.006325 µM
  relative viability: 0.911
NCI-H838; first compound 0.02 µM
  relative viability: 0.328
NCI-H838; first compound 0.06325 µM
  relative viability: 0.103
NCI-H838; first compound 0.2 µM
  relative viability: 0.0976
NCI-H2087; first compound 0.002 µM
  relative viability: 1.11
NCI-H2087; first compound 0.006325 µM
  relative viability: 0.954
NCI-H2087; first compound 0.02 µM
  relative viability: 0.726
NCI-H2087; first compound 0.06325 µM
  relative viability: 0.202
NCI-H2087; first compound 0.2 µM
  relative viability: 0.174
NCI-H1651; first compound 0.002 µM
  relative viability: 0.902
NCI-H1651; first compound 0.006325 µM
  relative viability: 0.803
NCI-H1651; first compound 0.02 µM
  relative viability: 0.561
NCI-H1651; first compound 0.06325 µM
  relative viability: 0.193
NCI-H1651; first compound 0.2 µM
  relative viability: 0.161
EPLC-272H; first compound 0.006325 µM
  relative viability: 0.861
EPLC-272H; first compound 0.02 µM
  relative viability: 0.563
EPLC-272H; first compound 0.06325 µM
  relative viability: 0.725
EPLC-272H; first compound 0.2 µM
  relative viability: 0.153
SW 1573; first compound 0.002 µM
  relative viability: 1.2
SW 1573; first compound 0.006325 µM
  relative viability: 1.14
SW 1573; first compound 0.02 µM
  relative viability: 0.711
SW 1573; first compound 0.06325 µM
  relative viability: 0.439
SW 1573; first compound 0.2 µM
  relative viability: 0.127
NCI-H1975; first compound 0.002 µM
  relative viability: 0.951
NCI-H1975; first compound 0.006325 µM
  relative viability: 0.739
NCI-H1975; first compound 0.02 µM
  relative viability: 0.291
NCI-H1975; first compound 0.06325 µM
  relative viability: 0.126
NCI-H1975; first compound 0.2 µM
  relative viability: 0.113
NCI-H2085; first compound 0.002 µM
  relative viability: 0.854
NCI-H2085; first compound 0.006325 µM
  relative viability: 0.793
NCI-H2085; first compound 0.02 µM
  relative viability: 0.482
NCI-H2085; first compound 0.06325 µM
  relative viability: 0.373
NCI-H2085; first compound 0.2 µM
  relative viability: 0.284
NCI-H727; first compound 0.002 µM
  relative viability: 0.82
NCI-H727; first compound 0.006325 µM
  relative viability: 0.768
NCI-H727; first compound 0.02 µM
  relative viability: 0.435
NCI-H727; first compound 0.06325 µM
  relative viability: 0.227
NCI-H727; first compound 0.2 µM
  relative viability: 0.192
LC-2-ad; first compound 0.002 µM
  relative viability: 0.928
LC-2-ad; first compound 0.006325 µM
  relative viability: 0.954
LC-2-ad; first compound 0.02 µM
  relative viability: 0.659
LC-2-ad; first compound 0.06325 µM
  relative viability: 0.498
LC-2-ad; first compound 0.2 µM
  relative viability: 0.0905
NCI-H2228; first compound 0.002 µM
  relative viability: 1.2
NCI-H2228; first compound 0.006325 µM
  relative viability: 0.808
NCI-H2228; first compound 0.02 µM
  relative viability: 0.191
NCI-H2228; first compound 0.06325 µM
  relative viability: 0.126
NCI-H2228; first compound 0.2 µM
  relative viability: 0.117
NCI-H2170; first compound 0.002 µM
  relative viability: 0.254
NCI-H2170; first compound 0.006325 µM
  relative viability: 0.28
NCI-H2170; first compound 0.02 µM
  relative viability: 0.248
NCI-H2170; first compound 0.06325 µM
  relative viability: 0.291
NCI-H2170; first compound 0.2 µM
  relative viability: 0.203
UMC-11; first compound 0.002 µM
  relative viability: 0.85
UMC-11; first compound 0.006325 µM
  relative viability: 0.834
UMC-11; first compound 0.02 µM
  relative viability: 0.395
UMC-11; first compound 0.06325 µM
  relative viability: 0.345
UMC-11; first compound 0.2 µM
  relative viability: 0.125
PC-3 [JPC-3]; first compound 0.002 µM
  relative viability: 0.486
PC-3 [JPC-3]; first compound 0.006325 µM
  relative viability: 0.471
PC-3 [JPC-3]; first compound 0.02 µM
  relative viability: 0.404
PC-3 [JPC-3]; first compound 0.06325 µM
  relative viability: 0.488
PC-3 [JPC-3]; first compound 0.2 µM
  relative viability: 0.338
NCI-H23; first compound 0.002 µM
  relative viability: 1.02
NCI-H23; first compound 0.006325 µM
  relative viability: 1.1
NCI-H23; first compound 0.02 µM
  relative viability: 0.587
NCI-H23; first compound 0.06325 µM
  relative viability: 0.139
NCI-H23; first compound 0.2 µM
  relative viability: 0.112
